Experiments:
Experiment in all cases: relative viability (nuclei count vs DMSO), 5 days (fraction); higher = more cells survive
Motesanib + Linsitinib = compound: CC1(C)CNc2cc(NC(=O)c3cccnc3NCc3ccncc3)ccc21 [Motesanib] + C[C@]1(O)C[C@@H](c2nc(-c3ccc4ccc(-c5ccccc5)nc4c3)c3c(N)nccn32)C1 [Linsitinib] (partner 1 µM)
Method in brief: (§1)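 A single step with final 0.05% Triton X-100, 1% formaldehyde and 1 ug/ml Hoechst fixed the cells and stained nuclei 5 days after treatment. Lung cancer cell lines in 1536-well plates had been treated by pin tool the day after seeding with one drug alone or a fixed anchor-drug dose plus five library-drug doses (not always all listed) in √10 steps, and nuclei were counted on 4× images. Relative viability is the ratio of nuclei in treated wells to nuclei in vehicle wells, taken as the median of duplicate plates.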

[1] = compound: C[C@@]1(C(=O)Nc2ccc(F)nc2)CCCN1c1nc(Nc2cc(C3CC3)n[nH]2)c2cccn2n1 + C[C@@H](Oc1cc(-c2cnn(C3CCNCC3)c2)cnc1N)c1c(Cl)ccc(F)c1Cl [Crizotinib] (partner 1 µM)
Method in brief: as §1

[2] = compound: C[C@@]1(C(=O)Nc2ccc(F)nc2)CCCN1c1nc(Nc2cc(C3CC3)n[nH]2)c2cccn2n1 + Nc1nc2[nH]cc(CCc3ccc(C(=O)N[C@@H](CCC(=O)O)C(=O)O)cc3)c2c(=O)[nH]1 [Pemetrexed] (partner 0.2 µM)
Method in brief: as §1

[3] = compound: C[C@@]1(C(=O)Nc2ccc(F)nc2)CCCN1c1nc(Nc2cc(C3CC3)n[nH]2)c2cccn2n1 + O=C(c1cc(Cc2n[nH]c(=O)c3ccccc23)ccc1F)N1CCN(C(=O)C2CC2)CC1 [Olaparib] (partner 8 µM)
Method in brief: as §1

Cell Line | relative viability (Motesanib + Linsitinib; first compound 0.01 µM) | relative viability (Motesanib + Linsitinib; first compound 0.03162 µM) | relative viability (Motesanib + Linsitinib; first compound 0.1 µM) | relative viability (Motesanib + Linsitinib; first compound 0.3162 µM) | relative viability (Motesanib + Linsitinib; first compound 1 µM) | relative viability ([1]; first compound 0.04 µM) | relative viability ([1]; first compound 0.1265 µM) | relative viability ([1]; first compound 0.4 µM) | relative viability ([1]; first compound 1.265 µM) | relative viability ([2]; first compound 0.04 µM) | relative viability ([2]; first compound 0.1265 µM) | relative viability ([2]; first compound 0.4 µM) | relative viability ([2]; first compound 1.265 µM) | relative viability ([3]; first compound 0.04 µM) | relative viability ([3]; first compound 0.1265 µM) | relative viability ([3]; first compound 0.4 µM) | relative viability ([3]; first compound 1.265 µM)
NCI-H1975 | 0.962 | 0.9 | 0.948 | 0.909 | 0.941 | 0.962 | 0.929 | 0.899 | 0.486 | 0.302 | 0.298 | 0.274 | 0.268 | 0.653 | 0.749 | 0.626 | 0.476
CAL-12T | 0.81 | 0.801 | 0.876 | 0.882 | 0.822 | 0.509 | 0.487 | 0.346 | 0.161 | 0.818 | 0.999 | 0.777 | 0.812 | 0.729 | 0.751 | 0.583 | 0.449
HCC-44 | 0.7 | 0.653 | 0.694 | 0.696 | 0.6 | 0.732 | 0.696 | 0.513 | 0.597 | 0.688 | 0.6 | 0.627 | 0.618 | 0.94 | 0.879 | 0.867 | 0.911
EKVX | 0.939 | 0.98 | 1.06 | 1.12 | 1.07 | 0.929 | 0.862 | 0.612 | 0.679 | 0.415 | 0.307 | 0.349 | 0.356 | 0.874 | 0.644 | 0.635 | 0.735
NCI-H1651 | 0.917 | 0.912 | 0.966 | 0.944 | 1.08 | 0.762 | 0.896 | 0.775 | 0.846 | 0.62 | 0.508 | 0.517 | 0.447 | 0.2 | 0.183 | 0.196 | 0.201
NCI-H1944 | 1.2 | 1.21 | 1.18 | 1.32 | 1.21 | 0.981 | 1.03 | 0.875 | 1.17 | 0.605 | 0.554 | 0.497 | 0.544 | 0.413 | 0.394 | 0.362 | 0.492
NCI-H1703 | 0.814 | 0.656 | 0.497 | 0.306 | 0.162 | 0.586 | 0.535 | 0.792 |  |  |  |  |  | 0.402 | 0.428 | 0.421 | 0.357
Calu-6 | 0.971 | 0.932 | 0.961 | 0.955 | 1.08 | 0.881 | 0.743 | 0.597 | 0.491 |  |  |  |  | 0.612 | 0.644 | 0.543 | 0.384
EBC-1 | 0.829 | 0.941 | 0.978 | 0.959 | 0.937 | 0.195 | 0.168 | 0.211 | 0.2 |  |  |  |  | 0.695 | 0.666 | 0.61 | 0.391
SW 1573 | 0.815 | 0.825 | 0.65 | 0.773 | 0.949 | 0.665 | 0.63 | 0.509 | 0.531 | 0.847 | 0.749 | 0.803 | 0.244 | 0.38 | 0.409 | 0.341 | 0.253
